± gives the expanded uncertainty stated by the source.

The conditions of the data set: Crystal, Transpiration method.

Take `O=c1cc[nH]c(=O)[nH]1` [2,4(1H,3H)-pyrimidinedione]: the “vapor or sublimation pressure” value is given as 0.00022 ± 2e-05 kPa (424 K); 0.00051 ± 4e-05 kPa (434.1 K); 0.00086 ± 7e-05 kPa (440 K); 0.00135 ± 0.0001 kPa (446 K); 0.00212 ± 0.00015 kPa (451.9 K); 0.00317 ± 0.0002 kPa (457.7 K). For the same compound, the “vapor or sublimation pressure” value by setting is: (462.6 K) 0.0047 ± 0.0003 kPa; (467.4 K) 0.00673 ± 0.00046 kPa; (472.4 K) 0.00905 ± 0.0006 kPa.

Turning to `Cc1c[nH]c(=O)[nH]c1=O` [thymine], the “vapor or sublimation pressure” value reads like this: (426.4 K) 0.00061 ± 5e-05 kPa; (430.5 K) 0.00086 ± 7e-05 kPa; (436.2 K) 0.00134 ± 0.0001 kPa; (440.5 K) 0.00183 ± 0.00012 kPa; (447.6 K) 0.00314 ± 0.0002 kPa; (450.8 K) 0.00397 ± 0.00025 kPa. In addition, the “vapor or sublimation pressure” value by setting is: (456.5 K) 0.00601 ± 0.00043 kPa; (460.6 K) 0.00813 ± 0.00056 kPa; (464.8 K) 0.01106 ± 0.00073 kPa; (468.9 K) 0.01464 ± 0.00095 kPa; (472.3 K) 0.01767 ± 0.0011 kPa.

The vapor or sublimation pressure is the equilibrium pressure above the liquid or solid.

For the origin of these results see the NIST ThermoML archive (doi:10.1016/j.jct.2015.03.015).
